Test results as given in ChEMBL document CHEMBL2034952, “Chalcone-benzoxaborole hybrid molecules as potent antitrypanosomal agents” (J Med Chem, 2012).
In brackets after ≈: the same amount, converted by molar mass. Activity calls are given as the source filed them. No cut-off for these calls is given here.

Legend:
L929 = assay: Cytotoxicity against mouse L929 cells after 72 hrs by resazurin assay; assay type: cell-based; details: L929, 72 h
Trypanosoma brucei [1] = assay: Antitrypanosomal activity against bloodstream Trypanosoma brucei 427 after 72 hrs by resazurin assay; assay type: functional, organism-based; details: Trypanosoma brucei, 427, 72 h
Trypanosoma brucei [2] = assay: Antitrypanosomal activity against bloodstream Trypanosoma brucei 221 infected in Balb/c mouse assessed as increase in mouse survival rate at 50 mg/kg, ip BID for 5 days starting 24 hrs post infection measured after 30 days by microscopic analysis; assay type: functional; details: Trypanosoma brucei, 221, ip, route intraperitoneal
Trypanosoma brucei [3] = assay: Antitrypanosomal activity against bloodstream Trypanosoma brucei 221 infected in Balb/c mouse assessed as complete elimination of parasitemia at 50 mg/kg, ip BID for 5 days starting 24 hrs post infection measured after 30 days by microscopic analysis; assay type: functional, organism-based; design: dose 50 mg/kg
[4] = Selectivity ratio of IC50 for mouse L929 cells to IC50 for bloodstream Trypanosoma brucei 427; assay type: ADME, cell-based; details: read-out: Ratio IC50

Row | Structure (SMILES) | IC50 (L929) [µg/mL] | IC50 (Trypanosoma brucei [1]) [µg/mL] | survival at 50 mg/kg (Trypanosoma brucei [2]) [%] | Activity (Trypanosoma brucei [3]) | selectivity ratio [4]
1 | O=C(/C=C/c1ccc2c(c1)B(O)OC2)c1ccccc1O | > 10 | 0.172 (≈ 0.614 µM) |  |  | 
2 | CCc1ccc(C(=O)/C=C/c2ccc3c(c2)B(O)OC3)cc1 | > 10 | 0.064 (≈ 0.219 µM) |  |  | 
3 | O=C(/C=C/c1ccc2c(c1)B(O)OC2)c1ccc(-c2ccccc2)cc1 | > 10 | 0.436 (≈ 1.28 µM) |  |  | 
4 | Cc1ccc(C(=O)/C=C/c2ccc3c(c2)B(O)OC3)cc1 | > 10 | 0.046 (≈ 0.165 µM) |  |  | 
5 | COc1ccc(C(=O)/C=C/c2ccc3c(c2)B(O)OC3)cc1OC | > 10 | 0.03 (≈ 0.0926 µM) |  |  | 
6 | Nc1cccc(C(=O)/C=C/c2ccc3c(c2)B(O)OC3)c1 | 10 (≈ 35.8 µM) | 0.056 (≈ 0.201 µM) |  |  | 
7 | Cn1cccc1C(=O)/C=C/c1ccc2c(c1)B(O)OC2 | > 10 | 0.057 (≈ 0.213 µM) |  |  | 
8 | COc1cccc(C(=O)CCc2ccc3c(c2)B(O)OC3)c1 | > 10 | 0.69 (≈ 2.33 µM) |  |  | 
9 | O=C(/C=C/c1ccc2c(c1)B(O)OC2)c1cccc(O)c1 | 7.56 (≈ 27 µM) | 0.037 (≈ 0.132 µM) |  |  | 
10 | O=C(/C=C/c1ccc2c(c1)B(O)OC2)c1cccc2ccccc12 | 3.67 (≈ 11.7 µM) | 0.135 (≈ 0.43 µM) |  |  | 
11 | O=C(/C=C/c1ccc2c(c1)B(O)OC2)c1cccs1 | > 10 | 0.045 (≈ 0.167 µM) | 20 |  | 
12 | O=C(/C=C/c1ccc2c(c1)B(O)OC2)c1ccccn1 | > 10 | 0.099 (≈ 0.373 µM) |  |  | 
13 | O=C(/C=C/c1ccc2c(c1)B(O)OC2)c1ccc(F)cc1 | > 10 | 0.1 (≈ 0.355 µM) | 0 |  | 
14 | COc1cccc(C(=O)/C=C/c2ccc3c(c2)B(O)OC3)c1 | > 10 | 0.022 (≈ 0.0748 µM) | 100 | Active | 
15 | COc1cc(C(=O)/C=C/c2ccc3c(c2)B(O)OC3)ccc1N | 1.45 (≈ 4.69 µM) | 0.01 (≈ 0.0323 µM) | 100 | Active | > 100
16 | COc1cccc(C(=O)/C=C/c2ccccc2)c1 | 5.7 (≈ 23.9 µM) | 0.395 (≈ 1.66 µM) |  |  | 
17 | COc1ccccc1C(=O)/C=C/c1ccc2c(c1)B(O)OC2 | 6.35 (≈ 21.6 µM) | 0.058 (≈ 0.197 µM) |  |  | 
18 | OB1OCc2ccc(/C=C/C(O)c3ccccc3)cc21 (centres undefined) | 2.88 (≈ 10.8 µM) | 0.239 (≈ 0.898 µM) |  |  | 
19 | COc1ccc(C(=O)/C=C/c2ccc3c(c2)B(O)OC3)c(OC)c1 | 7.87 (≈ 24.3 µM) | 0.037 (≈ 0.114 µM) |  |  | 
20 | O=C(/C=C/c1ccccc1)c1ccccc1 [CHALCONE] | 6.92 (≈ 33.2 µM) | 0.473 (≈ 2.27 µM) |  |  | 
21 | O=C(O)c1ccc(C(=O)/C=C/c2ccc3c(c2)B(O)OC3)cc1 | > 10 | 4.45 (≈ 14.4 µM) |  |  | 
22 | CSc1ccc(C(=O)/C=C/c2ccc3c(c2)B(O)OC3)cc1 | > 10 | 0.059 (≈ 0.19 µM) |  |  | 
23 | COc1cc(C(=O)/C=C/c2ccc3c(c2)B(O)OC3)ccc1[N+](=O)[O-] | > 10 | 0.044 (≈ 0.13 µM) | 0 |  | 
24 | Cc1cccc(C(=O)/C=C/c2ccc3c(c2)B(O)OC3)c1 | 8.56 (≈ 30.8 µM) | 0.048 (≈ 0.173 µM) | 0 |  | 

Row | Structure (SMILES) | IC50 (L929) [µg/mL] | IC50 (Trypanosoma brucei [1]) [µg/mL] | survival at 50 mg/kg (Trypanosoma brucei [2]) [%] | Activity (Trypanosoma brucei [3]) | selectivity ratio [4]
25 | O=C(/C=C/c1ccc2c(c1)B(O)OC2)c1ccc(O)c(O)c1 | > 10 | 0.055 (≈ 0.186 µM) |  |  | 
26 | O=C(/C=C/c1ccc2c(c1)B(O)OC2)c1ccccc1F | > 10 | 0.071 (≈ 0.252 µM) |  |  | 
27 | O=C(/C=C/c1ccc2c(c1)B(O)OC2)c1cccc(F)c1 | > 10 | 0.046 (≈ 0.163 µM) |  |  | 
28 | O=C(/C=C/c1ccc2c(c1)B(O)OC2)c1ccc(Cl)cc1 | > 10 | 0.06 (≈ 0.201 µM) | 0 |  | 
29 | O=C(/C=C/c1ccc2c(c1)B(O)OC2)c1ccc(OCc2ccccc2)cc1 | > 10 | 0.164 (≈ 0.443 µM) |  |  | 
30 | O=C(/C=C/c1ccc2c(c1)B(O)OC2)c1ccccc1 | > 10 | 0.089 (≈ 0.337 µM) | 0 |  | 
31 | O=C(/C=C/c1ccc2c(c1)B(O)OC2)c1ccco1 | > 10 | 0.064 (≈ 0.252 µM) |  |  | 
32 | CCOC(=O)c1ccc(C(=O)/C=C/c2ccc3c(c2)B(O)OC3)cc1 | > 10 | 0.2 (≈ 0.595 µM) |  |  | 
33 | O=C(/C=C/c1ccc2c(c1)B(O)OC2)c1ccc(Br)cc1 | > 10 | 0.09 (≈ 0.262 µM) | 0 |  | 
34 | O=C(CCc1ccc2c(c1)B(O)OC2)c1ccccc1 | > 10 | 0.331 (≈ 1.24 µM) |  |  | 
35 | O=C(/C=C/c1ccc2c(c1)B(O)OC2)c1ccc(O)cc1 | > 10 | 0.043 (≈ 0.154 µM) |  |  | 
36 | COCOc1ccccc1C(=O)/C=C/c1ccc2c(c1)B(O)OC2 | 9.02 (≈ 27.8 µM) | 0.366 (≈ 1.13 µM) |  |  | 
37 | COc1cc(C(=O)/C=C/c2ccc3c(c2)B(O)OC3)cc(OC)c1OC | > 10 | 0.113 (≈ 0.319 µM) |  |  | 
38 | COc1ccc(C(=O)/C=C/c2ccc3c(c2)B(O)OC3)cc1 | > 10 | 0.071 (≈ 0.241 µM) | 0 |  | 
39 | COCOc1cccc(C(=O)/C=C/c2ccc3c(c2)B(O)OC3)c1 | > 10 | 0.071 (≈ 0.219 µM) | 0 |  | 
40 | O=C(/C=C/c1ccc2c(c1)B(O)OC2)c1ccc(Cl)c(Cl)c1 | > 10 | 0.09 (≈ 0.27 µM) |  |  | 
41 | O=C(/C=C/c1ccc2c(c1)B(O)OC2)c1ccc2c(c1)OCCO2 | 6.8 (≈ 21.1 µM) | 0.08 (≈ 0.248 µM) |  |  | 
42 | CC(=O)Nc1ccc(C(=O)/C=C/c2ccc3c(c2)B(O)OC3)cc1 | > 10 | 0.04 (≈ 0.125 µM) | 0 |  | 
43 | Nc1ccc(C(=O)/C=C/c2ccc3c(c2)B(O)OC3)cc1 | > 10 | 0.024 (≈ 0.086 µM) |  |  | 
44 | Cc1ccc(C(=O)/C=C/c2ccc3c(c2)B(O)OC3)cc1C | > 10 | 0.04 (≈ 0.137 µM) |  |  | 
45 | O=C(/C=C/c1ccc2c(c1)B(O)OC2)c1ccc(I)cc1 | > 10 | 0.171 (≈ 0.438 µM) |  |  | 
46 | O=C(/C=C/c1ccc2c(c1)B(O)OC2)c1ccc([N+](=O)[O-])cc1 | > 10 | 0.082 (≈ 0.265 µM) |  |  | 
47 | O=C(/C=C/c1ccc2c(c1)B(O)OC2)c1ccc(C(F)(F)F)cc1 | > 10 | 0.133 (≈ 0.4 µM) |  |  | 
